The values that follow come from patent US20230250077A1, “SULFONYLBENZAMIDE DERIVATIVE AND CONJUGATE THEREOF, PREPARATION METHOD THEREFOR AND USE THEREOF” (Jiangsu Hengrui Pharmaceuticals Co., Ltd., priority 2020, published 2023).

pKi: −log10 of the molar value. Marks after values point to notes of the source that are not given here.

The target in data set [1] is T1, BCL-xL (Homo sapiens, UniProt Q07817).
T1 construct: purchased R&D 894-BX-050
Put plainly: Binding activity for BCL-xL (HTRF, biotin-labeled BIM). Particulars: His-tagged BCL-xL. As to the method:
In vitro BCL-xL-binding activity was tested by the following method.
Reagents used in this experiment: His-tagged BCL-xL protein (R&D, Cat #894-BX-050); biotin-labeled BIM protein (R&D, Cat #3526/1); binding buffer (cisbio, Cat #62DLBDDF); assay buffer (cisbio, Cat #62DB1FDG); MAb anti-6His-Eu cryptate (cisbio, Cat #61HI2KLA); and affinity streptomycin linked XL665 (cisbio, Cat #611SAXLA).
The in vitro binding assay described below can determine the binding activity of test compounds for BCL-xL.
The test compounds were dissolved in dimethyl sulfoxide and diluted to gradient concentrations as required for the experiment, and the compounds at various concentrations formulated in dimethyl sulfoxide were subjected to a 100-fold dilution with a binding buffer. BCL-xL was diluted to the corresponding concentration with a binding buffer, and added to a white 384-well plate at 4 μL/well. Then the diluted test compound was added to the white 384-well plate at 2 μL/well. The plate was incubated at 25° C. for 1 h after the mixture was uniformly mixed. Biotin-labeled BIM protein was diluted to the corresponding concentration with a binding buffer, and added to a white 384-well plate at 4 μL/well. The plate was incubated at 25° C. for 2 h after the mixture was uniformly mixed. The MAb anti-6His-Eu cryptate and the affinity streptomycin linked XL665 were each diluted to the corresponding concentration with an assay buffer, and added to a white 384-well plate at 5 μL/well. The plate was incubated at 25° C. for 2-4 h after the mixture was uniformly mixed. The signal values were read with the HTRF program in a microplate reader (BMG Labtech, model: PHERAstar FS).

Data set [2] deals with T2, BCL-2 (Homo sapiens, UniProt P10415).
T2 construct: purchased R&D systems 827-BC-050
The data set can be described thus: Binding activity for BCL-2 (HTRF, biotin-labeled BIM). The note with it: His-tagged BCL-2, biotin-labeled BIM. How it is done: In vitro BCL-2-binding activity was tested by the following method.
Reagents used in this experiment: His-tagged BCL-2 protein (R&D systems, Cat #827-BC-050); biotin-labeled BIM protein (R&D, Cat #3526/1); binding buffer (cisbio, Cat #62DLBDDF); assay buffer (cisbio, Cat #62DB1FDG); MAb anti-6His-Eu cryptate (cisbio, Cat #61HI2KLA); and affinity streptomycin linked XL665 (cisbio, Cat #611SAXLA).
The in vitro binding assay described below can determine the binding activity of test compounds for BCL-2.
The test compounds were dissolved in dimethyl sulfoxide and diluted to gradient concentrations as required for the experiment, and the compounds at various concentrations formulated in dimethyl sulfoxide were subjected to a 100-fold dilution with a binding buffer. BCL-2 was diluted to the corresponding concentration with a binding buffer solution, and added to a white 384-well plate at 4 μL/well. Then the diluted test compound was added into the white 384-well plate at 2 μL/well. The plate was incubated at 25° C. for 1 h after the mixture was uniformly mixed. Biotin-labeled BIM protein was diluted to the corresponding concentration with a binding buffer, and added to a white 384-well plate at 4 μL/well. The plate was incubated at 25° C. for 2 h after the mixture was uniformly mixed. The MAb anti-6His-Eu cryptate and the affinity streptomycin linked XL665 were each diluted to the corresponding concentration with an assay buffer, and added to a white 384-well plate at 5 μL/well. The plate was incubated at 25° C. for 2-4 h after the mixture was uniformly mixed. The signal values were read with the HTRF program in a microplate reader (BMG Labtech, model: PHERAstar FS).
A general note: In TR-FRET formats the signal depends on donor and acceptor labels being close together.

In data set [3] the test system is NCI-H146 cells. The data set can be described thus: Inhibition of proliferation of NCI-H146 cells (CellTiter-Glo). It is filed as cell-based. The note with it: Homo sapiens, 72 h, 3 days, read-out: Inhibitory activity IC50 (nM) for the proliferation of NCI-H146 cells. As to the method: (§1) In vitro inhibitory activity for the proliferation of RS4;11 cells and NCI-H146 cells was tested by the following method.
(§2) Reagents used in this experiment: RPMI-1640 medium (HyCLone, Cat #SH30243018); fetal bovine serum (Gibco, Cat #10099-141); pancreatin (Gibco, Cat #25200-072); Cell Titer-Glo (Promega, Cat #G7571).
(§3) Materials used: RS4;11 cells (Nanjing Kebai Biotechnology Co., Ltd, Cat #CBP60641); and NCI-H146 cells (ATCC, Cat #HTB-173).
(§4) The in vitro cell proliferation assay described below can determine the inhibitory activity of the test compounds for the proliferation of RS4;11 cells and NCI-H146 cells.
(§5) RS4;11 cells (or NCI-H146 cells) were cultured in an RPMI-1640 culture medium containing 10% FBS, and were passaged for 2-3 times a week in a passage ratio of 1:3 or 1:5. During passage, the cells were transferred to a centrifuge tube, and centrifuged at 1200 rpm for 3 min. The supernatant was discarded, and fresh culture medium was added to resuspend the cells. 90 μL of cell suspension was added to a 96-well cell culture plate, wherein RS4;11 cells and NCI-H146 cells were added at a density of 2.22×10^5 cells/mL. Only 100 μL of complete medium (RPMI-1640 medium containing 10% FBS) was added to the periphery of the 96-well plate. The plate was incubated in an incubator for 24 h (37° C., 5% CO2).
(§6) The test sample was diluted to a proper concentration gradient with dimethyl sulfoxide as required for the experiment. 5 μL of the solution of the test compound prepared in a gradient concentration was added to 95 μL of fresh culture medium and mixed uniformly, and then 10 μL of the culture medium containing the above compound was added to a cell culture plate. The cell culture plate was incubated in an incubator for 3 days (37° C., 5% CO2). 50 μL of CellTiter-Glo reagent was added into each well of the 96-well cell culture plate. The plate was let stand for 5-10 min away from the light at room temperature. The chemiluminescence signals were read by a microplate reader (BMG Labtech, model: PHERAstar FS) and the data were processed by GraphPad software.
Background: In ATP-based viability assays light output follows the ATP content of the culture.

The test system of data set [4] is RS4;11 cells. The data set can be described thus: Inhibition of proliferation of RS4;11 cells (CellTiter-Glo). It is filed as cell-based. Particulars: Homo sapiens, 72 h, 3 days, read-out: Inhibitory activity IC50 (nM) for the proliferation of RS4;11 cells. How it is done: as §1, §2, §3, §4, §5, §6
A short description of data set [5]: Pharmacokinetic evaluation in mice (iv, LC/MS/MS plasma). Particulars: C57 mice, female, intravenous administration, dose 1 mg/kg (table). It is filed as in vivo. As to the method:
The drug concentration in the plasma of the test animals (mice) at different time points after intravenous (iv) administration of compound 10 and AZD4320 was determined by an LC/MS/MS method. The pharmacokinetic behavior of the compounds of the present disclosure in mice was studied and their pharmacokinetic profile was valuated.
18 C57 mice, female, randomly divided into 2 groups, purchased from Zhejiang Vital River Laboratory Animal Technology Co., Ltd, animal production license number: SCXK (Shanghai) 2017-0005.
A certain amount of compound 10 was weighed, dissolved by adding 5% by volume of DMSO and 5% Tween 80 (Shanghai Titan Scientific Co., Ltd.), and then prepared into a 0.1 mg/mL clear solution by adding 90% normal saline. Compound AZD4320 was formulated as with compound 10. […]
The mice were intravenously administered with compound 10, and 0.1 mL of blood was collected before the administration and 5 min, 0.25 h, 0.5 h, 1.0 h, 2.0 h, 4.0 h, 8.0 h, 11.0 h and 24.0 h after the administration, put into an EDTA-K2 anticoagulation tube, centrifuged at 10,000 rpm for 1 min (4° C.). Plasma was separated within 1 hour, and stored at −20° C. for testing. The process from blood collection to centrifugation was performed under an ice bath.
The mice were intravenously administered with compound AZD4320, and 0.1 mL of blood was collected before the administration and 5 min, 0.25 h, 0.5 h, 1.0 h, 2.0 h, 4.0 h, 8.0 h, 11.0 h and 24.0 h after the administration, put into an EDTA-K2 anticoagulation tube, centrifuged at 10,000 rpm for 1 min (4° C.). Plasma was separated within 1 hour, and stored at −20° C. for testing. The process from blood collection to centrifugation was performed under an ice bath.
The content of the test compounds at different concentrations in plasma of mice after the administration was determined: 10 μL of plasma of mice at each time point after the administration was mixed with 200 μL of methanol (containing an internal standard solution camptothecin (100 ng/mL)); the mixture was vortexed for 1 min, and centrifuged for 10 min (18,000 r/min), and 3 μL of supernatant was taken for LC/MS/MS analysis.

Data set [6] relates to SD rats. The data set can be described thus: Toxicity test on SD rats by repeated intravenous administrations for 7 days. It is filed as in vivo, rat. Particulars: 1 mg/kg intravenously qd. How it is done: This experiment was performed to evaluate the toxicity of compound 9 and AZD4320 to SD rats by repeated intravenous administrations for 7 days.
30 SD rats, weighing about 180-200 g and aged 6-7 weeks, half male and half female, purchased from Zhejiang Vital River Laboratory Animal Technology Co., Ltd., SPF grade. Animal certification number: 200917Aazz0619000298 and 20200917Aazz0619000104. Production license number: SCXK (Zhejiang) 2019-0001.
Housing conditions: SPF grade, animals were housed in plastic and transparent rat cages, 2-3 per cage. The room temperature was 20-26° C. and the relative humidity was 40%-70%. The illumination was controlled in a 12/12 light/dark cycle. The granulated feed for mice was freely taken in an unlimited amount.
The rats were randomly divided into the following 3 groups: a vehicle control group, a compound 9-1 mg/kg group and a compound AZD4320-1 mg/kg group, with 6 rats in each group, half male and half female.
Dosage of the test sample for the 7-day toxicity test in rats: 1 mg/kg (qd), for 7 consecutive days. Administration route: intravenously, dosing volume: 10 mL/kg, dosing frequency and dosing period: daily in the morning for 7 days.
Vehicle: 1.5% DMA+98.5% (10% HS-15), wherein DMA is N,N-dimethylacetamide (Shanghai Titan Scientific Co., Ltd., Cat #01013630); and HS-15 is polyethylene glycol stearate 15 (Solutol HS15) (Shanghai Xietai Chemical Co., Ltd., Cat #50253404).
Hitachi 7100 automatic biochemical analyzer
Siemens advia 2120i automatic blood cell analyzer
Sysmex ca1500 automatic coagulation analyzer
The detection results were input and statistically processed by Excel of the computer.
Clinical symptoms, food intake and general visual observation results of dissection were not statistically calculated, and indexes such as body weight, organ weight and clinical examination were counted by using T-test.
SD rats were intravenously administered with 1 mg/kg compound 9 or 1 mg/kg AZD4320 at 5 mL/kg for 7 repeated days.

T1 sequence (Q07817 whole entry): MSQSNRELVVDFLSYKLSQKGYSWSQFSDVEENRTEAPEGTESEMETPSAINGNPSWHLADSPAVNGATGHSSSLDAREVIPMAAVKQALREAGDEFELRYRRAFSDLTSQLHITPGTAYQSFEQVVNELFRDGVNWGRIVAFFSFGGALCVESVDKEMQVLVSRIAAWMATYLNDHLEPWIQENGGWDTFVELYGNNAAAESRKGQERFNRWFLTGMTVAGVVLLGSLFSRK
T2 sequence (P10415 whole entry): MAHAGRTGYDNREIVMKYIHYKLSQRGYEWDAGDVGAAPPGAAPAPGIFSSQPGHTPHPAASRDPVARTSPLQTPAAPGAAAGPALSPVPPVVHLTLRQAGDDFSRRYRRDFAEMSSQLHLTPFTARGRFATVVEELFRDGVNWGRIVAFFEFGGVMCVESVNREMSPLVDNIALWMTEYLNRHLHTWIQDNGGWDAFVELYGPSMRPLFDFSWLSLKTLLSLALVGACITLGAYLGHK

The term pKi denotes −log10 of the Ki, conventionally taken in molar units. A lower pKi goes with a large Ki. Turning to `O=C(NS(=O)(=O)c1ccc(N[C@@H](CSc2ccccc2)C[C@H]2CCCN2CCO)c(S(=O)(=O)C(F)(F)F)c1)c1ccc(N2CCC([C@@H](O)c3ccccc3-c3ccc(Cl)cc3)CC2)cc1` [Example 2-2, 4-(4-((R)-(4′-chloro-[1,1′-biphenyl]-2-yl)(hydroxy)methyl)piperidin-1-yl)-N-((4-(((R)-1-((R)-1-(2-hydroxyethyl)pyrrolidin-2-yl)-3-(phenylthio)propan-2-yl)amino)-3-((trifluoromethyl)sulfonyl)phenyl)sulfonyl)benzamide], the pKi was 9.62 in data set [1] and 10.15 in data set [2]. Moreover, the IC50 in data set [3] is 33 nM; in data set [4] it was 7 nM.
Broadly, the half-life is the time in which the quantity being followed falls by half. Turning to `CN(CCO)CC[C@H](CSc1ccccc1)Nc1ccc(S(=O)(=O)NC(=O)c2ccc(N3CCC([C@@H](O)c4ccccc4-c4ccc(Cl)cc4)CC3)cc2)cc1S(=O)(=O)C(F)(F)F` [AZD4320, reference compound], in data set [5], the “Clearance CLz/F” value stood at 72.7 mL/min/kg. For the same compound, in data set [5] (mouse, plasma, read-out: Area under curve AUC0-t), the AUC(0-t) is 206 ng·h/mL. The half-life in data set [5] (mouse, plasma, read-out: Half-life T½ (converted)) was 3.1 h. For the same compound, the MRT inf in data set [5] (mouse, plasma, read-out: Mean retention time MRT 0-∞) was 2.4 h. Also, the concentration at 5 min in data set [5] (mouse, plasma, read-out: Plasma Concentration C5 min) amounted to 436 ng/mL. For the same compound, the “PLT (10^9/L)” value in data set [6] was 807.50** 10^9/L. The “Effect on platelets (in words)” value in data set [6] (vs vehicle control) is listed as “more significantly reduced”.
